Data set [1] addresses T1, LIM domain kinase 1 (Homo sapiens, UniProt P53667). As to the kind of experiment: Inhibition of human recombinant LIMK1.
Target sequence in this assay (P53667 whole entry, the tested form may be a part): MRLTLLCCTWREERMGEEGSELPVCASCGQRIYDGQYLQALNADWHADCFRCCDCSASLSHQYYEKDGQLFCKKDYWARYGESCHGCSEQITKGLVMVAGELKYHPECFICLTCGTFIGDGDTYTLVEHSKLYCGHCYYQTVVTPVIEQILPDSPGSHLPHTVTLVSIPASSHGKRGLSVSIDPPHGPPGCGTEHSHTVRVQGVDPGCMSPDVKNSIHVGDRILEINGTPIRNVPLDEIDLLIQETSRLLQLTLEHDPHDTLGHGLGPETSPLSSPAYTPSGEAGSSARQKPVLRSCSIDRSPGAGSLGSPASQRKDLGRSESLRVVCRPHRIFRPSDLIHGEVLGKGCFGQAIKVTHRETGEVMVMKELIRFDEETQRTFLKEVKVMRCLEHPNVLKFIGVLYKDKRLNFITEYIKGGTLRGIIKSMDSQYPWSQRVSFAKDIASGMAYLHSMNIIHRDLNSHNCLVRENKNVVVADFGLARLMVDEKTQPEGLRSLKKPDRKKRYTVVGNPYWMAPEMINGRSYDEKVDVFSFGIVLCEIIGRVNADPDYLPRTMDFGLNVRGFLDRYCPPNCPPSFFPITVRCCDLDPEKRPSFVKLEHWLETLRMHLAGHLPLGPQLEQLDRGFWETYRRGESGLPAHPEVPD
Data set [2] has as its target T2, LIM domain kinase 2 (Homo sapiens, UniProt P53671). In words: Inhibition of human recombinant LIMK2.
The test system of the next data set is MDA-MB-231. In words: Cytotoxicity against human MDA-MB-231 cells assessed as reduction in cell viability incubated for 96 hrs at 3 uM by MTT method relative to control. It counts as functional. (Formazan colour is commonly taken as a measure of viable cells.)
Data set [3] addresses T2, LIM domain kinase 2. As to the kind of experiment: Inhibition of LIMK2 (unknown origin) in presence of ATP at 25 uM.
The next data set is described as follows: cells. The note with it: Mus musculus, NF-1.
Data set [4] deals with Human immunodeficiency virus. As to the kind of experiment: Antiviral activity against HIV at 100 uM relative to control. It counts as functional.
Data set [5] concerns Human immunodeficiency virus. As to the kind of experiment: Antiviral activity against HIV at 10 uM relative to control. Type of data set: functional.
Data set [6] deals with Human immunodeficiency virus. As to the kind of experiment: Antiviral activity against HIV at 1 uM relative to control. It counts as functional.
Data set [7] has as its target T2, LIM domain kinase 2. In words: Inhibition of LIMK2 (unknown origin).
In data set [8] the target is T1, LIM domain kinase 1. In words: Inhibition of LIMK1 (unknown origin).
Target sequence in this assay (P53667 whole entry, the tested form may be a part): as above
Data set [9] has as its system PANC-1. In words: Cytotoxicity against human PANC-1 cells assessed as reduction in cell growth relative to control. Type of data set: functional. Set-up: scale not given: the % may be the effect or the level left.
For data set [10], the system named is PANC-1. In words: Anti-tumor activity against human PANC-1 cells xenografted in athymic nude mouse assessed as reduction in tumor growth at 100 mg/kg, ip measured after 35 days relative to control. Further details: scale not given: the % may be the effect or the level left. The following applies: time 35 day. It counts as functional. Background: In xenograft studies the graft and the host belong to different species.

For a further data set, the species on record is Mus musculus. In words: Antiglaucoma activity in ocular […] mouse assessed as reduction in intraocular pressure at 15 ug measured after 4 hrs. It counts as functional. The following applies: dose 15 µg.
Data set [11] can be described thus: Inhibition of AbI (unknown origin). Set-up: species or system Homo sapiens.
The target of data set [12] is T1, LIM domain kinase 1. In words: Inhibition of human LIMK1 (312 to 638 residues) expressed in Sf9 cells using […] as substrate incubated for 30 mins by micro-scintillation fluid method.
Target sequence in this assay (P53667 whole entry, looked up, the tested form may be a part): as the sequence (P53667 whole entry, the tested form may be a part) above
Data set [13] has as its target T1, LIM domain kinase 1. In words: Inhibition of human LIMK1 (321 to 647 residues) expressed in Sf9 cells using […] as substrate incubated for 30 mins by micro-scintillation fluid method.
Target sequence in this assay (P53667 whole entry, the tested form may be a part): as above
Data set [14] addresses Rho-associated protein kinase 2 (Homo sapiens, UniProt O75116). As to the kind of experiment: Inhibition of human recombinant ROCK2 by ADP glo kinase assay. On the technique in general: ADP-Glo first removes unused ATP, then detects ADP through luciferase.
Data set [15] in a line: Half life in rat, iv at 1 mg/kg. It counts as ADME, organism-based. The following applies: in vivo.
Data set [16] addresses T1, LIM domain kinase 1. In words: Inhibition of LIMK1 (unknown origin) phosphorylation of cofilin.
Target sequence in this assay (P53667 whole entry, the tested form may be a part): as above
The target in data set [17] is T2, LIM domain kinase 2. In words: Inhibition of LIMK2 (unknown origin) in presence of ATP at 200 uM.
The next data set is filed under the species Homo sapiens. In words: Selectivity index, ratio of IC50 for ROCK2 (unknown origin) to IC50 for PKA (unknown origin).
Data set [18] deals with cAMP-dependent protein kinase (PKA) (Homo sapiens) (UniProt P22694+P17612+P22612). In words: Inhibition of PKA (unknown origin) assessed as fold increase. It counts as protein assay.

T2 sequence (P53671 whole entry, the tested form may be a part): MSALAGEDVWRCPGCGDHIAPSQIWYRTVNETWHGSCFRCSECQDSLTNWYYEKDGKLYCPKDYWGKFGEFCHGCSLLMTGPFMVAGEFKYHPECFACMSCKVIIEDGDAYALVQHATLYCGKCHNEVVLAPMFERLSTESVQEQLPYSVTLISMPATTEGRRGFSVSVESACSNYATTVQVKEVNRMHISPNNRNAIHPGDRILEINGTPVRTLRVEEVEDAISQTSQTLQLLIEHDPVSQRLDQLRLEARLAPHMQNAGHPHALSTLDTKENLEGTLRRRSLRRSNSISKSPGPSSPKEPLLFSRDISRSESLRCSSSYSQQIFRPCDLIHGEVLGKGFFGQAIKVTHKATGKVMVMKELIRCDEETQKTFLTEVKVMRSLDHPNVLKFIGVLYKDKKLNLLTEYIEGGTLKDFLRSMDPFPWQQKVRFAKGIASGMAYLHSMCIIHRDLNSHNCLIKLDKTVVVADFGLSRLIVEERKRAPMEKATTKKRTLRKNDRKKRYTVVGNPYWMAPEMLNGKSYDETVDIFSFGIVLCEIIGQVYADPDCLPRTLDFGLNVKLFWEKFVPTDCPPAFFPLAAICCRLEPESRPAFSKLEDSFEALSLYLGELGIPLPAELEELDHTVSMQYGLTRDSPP
Sequence of Rho-associated protein kinase 2 (O75116 whole entry): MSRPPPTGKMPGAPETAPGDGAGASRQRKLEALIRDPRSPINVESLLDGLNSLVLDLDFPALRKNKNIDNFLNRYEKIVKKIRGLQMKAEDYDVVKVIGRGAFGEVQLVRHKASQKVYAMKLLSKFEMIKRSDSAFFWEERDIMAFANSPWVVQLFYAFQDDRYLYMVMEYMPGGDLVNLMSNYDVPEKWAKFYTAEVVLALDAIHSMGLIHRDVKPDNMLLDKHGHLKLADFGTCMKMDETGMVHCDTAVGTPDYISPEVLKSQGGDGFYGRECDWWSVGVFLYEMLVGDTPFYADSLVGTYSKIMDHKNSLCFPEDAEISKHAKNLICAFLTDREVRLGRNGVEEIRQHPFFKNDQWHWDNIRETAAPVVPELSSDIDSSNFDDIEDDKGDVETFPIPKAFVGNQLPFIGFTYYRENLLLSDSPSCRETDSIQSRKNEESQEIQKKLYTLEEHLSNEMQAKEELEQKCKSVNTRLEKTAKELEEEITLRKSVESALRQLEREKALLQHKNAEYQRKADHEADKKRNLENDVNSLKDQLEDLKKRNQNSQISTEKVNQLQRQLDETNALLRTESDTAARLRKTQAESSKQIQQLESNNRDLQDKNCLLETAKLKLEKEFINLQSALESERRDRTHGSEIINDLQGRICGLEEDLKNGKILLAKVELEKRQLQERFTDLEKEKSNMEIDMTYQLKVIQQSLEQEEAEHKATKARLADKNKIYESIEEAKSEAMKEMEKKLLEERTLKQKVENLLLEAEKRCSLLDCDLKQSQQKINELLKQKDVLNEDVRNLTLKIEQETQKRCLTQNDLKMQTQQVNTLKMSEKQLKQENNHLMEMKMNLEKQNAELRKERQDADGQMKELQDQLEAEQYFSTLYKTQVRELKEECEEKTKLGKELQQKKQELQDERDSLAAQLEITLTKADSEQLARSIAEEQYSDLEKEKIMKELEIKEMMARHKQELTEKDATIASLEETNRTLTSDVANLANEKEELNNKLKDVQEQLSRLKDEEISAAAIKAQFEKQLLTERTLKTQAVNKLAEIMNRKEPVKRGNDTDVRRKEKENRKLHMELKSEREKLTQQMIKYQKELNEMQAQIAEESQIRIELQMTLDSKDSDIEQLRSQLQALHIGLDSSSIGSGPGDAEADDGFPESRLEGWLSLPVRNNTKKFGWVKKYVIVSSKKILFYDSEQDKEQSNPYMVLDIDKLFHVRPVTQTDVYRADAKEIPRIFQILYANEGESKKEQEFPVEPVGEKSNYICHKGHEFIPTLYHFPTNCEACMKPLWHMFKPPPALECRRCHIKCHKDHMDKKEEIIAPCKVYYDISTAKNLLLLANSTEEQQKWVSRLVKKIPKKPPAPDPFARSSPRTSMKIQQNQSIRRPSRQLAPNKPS

For orientation: IC50 means the concentration that inhibits the measured activity by half. As for `Cc1c2cc[nH]c(=O)c2c(C)c2c1[nH]c1ccc(OC(=O)c3ccccc3)cc12`, the values for the IC50 at LIM domain kinase 1 [1] and on LIM domain kinase 2 [2] were 50 nM and 75 nM, respectively.

Regarding `CC(C)CNc1ncc(-c2ccncc2-c2ccccc2Cl)s1`, in the data set with MDA-MB-231, the Activity is recorded as 70%.

With `Cc1c[nH]c2ncnc(N3CCC(C(=O)Nc4cccc(OC(=O)N(C)C)c4)C(C)C3)c12` (configuration not stated), the concentration for half-maximal inhibition (IC50) at LIM domain kinase 2 [3] was 210 nM.

One may read the EC50 as the concentration giving half of the maximal effect. On to `CC(C)C(=O)Nc1ncc(-c2cc(C(F)F)nn2-c2c(Cl)cccc2Cl)s1`, for which the EC50 in the data set “cells” came to 30000 nM.

Take `COC(=O)c1ccc2[nH]c(C3CCN(c4ncnc5[nH]cc(Cl)c45)CC3)nc2c1`: the Activity was found to be 80% in data set [4], 70% in data set [5] and 50% in [6].

On to `COc1cc(-c2nn(C3CCC(N4CCN(C)CC4)CC3)c3ncnc(N)c23)ccc1NC(=O)OCc1ccccc1` (configuration not stated), for which the IC50 at LIM domain kinase 2 [7] came to 800 nM; against LIM domain kinase 1 [8] it was 900 nM.

Molecule `CN(C)C1(C(=O)Nc2cccc(-c3ccccc3)c2)CCN(c2ncnc3[nH]c4c(c23)CCCC4)CC1` returned an IC50 on LIM domain kinase 2 [7] of 0.1 nM.

For the molecule `Cc1c[nH]c2ncnc(N3CCC(C(=O)Nc4cccc(OC(=O)N(C)C)c4)[C@@H](C)C3)c12` (some centres not stated), the IC50 on LIM domain kinase 2 [3] came out at 110 nM.

Take `Cc1cc(C(=O)Nc2cccc(C(=O)Nc3cccc(C(F)(F)F)c3)c2)on1`: the Activity in the data set on PANC-1 [9] stood at 46%; in the data set with PANC-1 [10] it was 80%.

Regarding `O=C(CC1CCCN1)Nc1ncc(-c2cc(C(F)F)nn2-c2c(Cl)cccc2Cl)s1` (configuration not stated), the Activity in the data set listed under Mus musculus is 5 mmHg.

As to `CN(Cc1ccccc1)C(=O)c1ccc(S(=O)(=O)Nc2ccccc2)cc1`, in [11], inhibition was half-maximal at 6 nM (IC50).

For `O=C(Nc1ncc(-c2cc(C(F)F)nn2-c2c(Cl)cccc2Cl)s1)C1CC1`, the IC50 was determined as 6 nM against LIM domain kinase 1 [12] and 5 nM on LIM domain kinase 1 [13].

Regarding `Cc1[nH]c2ncnc(N3CCC(CN)(C(=O)Nc4cccc(OC(=O)N(C)C)c4)CC3)c2c1C`, the midpoint of inhibition against LIM domain kinase 1 [8], the IC50, lay at 23 nM.

Take `Cc1ccc(-c2cnccc2-c2cnc(Nc3ccc(O)cc3)s2)c(Cl)c1`: the Activity in the data set with MDA-MB-231 came to 96%.

Regarding `Cc1c[nH]c2ncnc(N3CCN(C(=O)Nc4cccc(OC(=O)N(C)C)c4)[C@@H](C)C3)c12`, the Activity in the data set listed under Mus musculus stood at 3 mmHg.

With `Cc1c[nH]c2ncnc(-c3ccc(NC(=O)Nc4cccc(C(=O)NC(C)C)c4)cc3F)c12`, in [14], the half-maximal inhibitory concentration (IC50) is 18 nM.

The term half-life denotes how long it takes for the measured level to halve. For the molecule `Cc1c[nH]c2ncnc(-c3ccc(NC(=O)N(CCN(C)C)c4ccc(Cl)cc4)cc3)c12`, in data set [15], the half-life was 6 h.

As for `COCCN(C(=O)Nc1ccc(-c2ncnc3[nH]c(C)c(C)c23)c(F)c1)c1ccc(Cl)cc1`, at LIM domain kinase 1 [16], the half-inhibitory concentration (IC50) amounted to 8 nM.

`COC(=O)Cc1cccc(NC(=O)C2(CN)CCN(c3ncnc4[nH]c5c(c34)CC(F)CC5)CC2)c1` (configuration not stated): the IC50 at LIM domain kinase 2 [17] was less than 0.1 nM.

For `CN(C)C(=O)Oc1cccc(NC(=O)C2(CN)CCN(c3ncnc4[nH]c5c(c34)CCCC5)CC2)c1`, the Selectivity Index in the data set filed under Homo sapiens was found to be 1. For the same molecule, the fold change (FC) in data set [18] stood at 0.7.

These data come from ChEMBL document CHEMBL5244212, “Recent advances in the rational design and development of LIM kinase inhibitors are not enough to enter clinical trials” (Eur J Med Chem, 2018).
